{
  "source": "patent US20060104902A1",
  "about": "“Method of preselection patients for anti-VEGF, anti-HIF-1 or anti-thioredoxin therapy” (priority 2004, published 2006)",
  "key": {"[1]": {"system": "current tumor model", "details": "by 24 h post-treatment; cited from earlier work"}, "[2]": {"system": "HT-29 xenografts", "details": "up to three hours post-treatment; cited from earlier work"}, "[3]": {"system": "HT-29 tumor xenografts", "experiment": "DCE-MRI with Gd-BSA: tumor vascular permeability and vascular volume fraction", "format": "in vivo, SCID mice"}, "[4]": {"system": "human VEGF (hVEGF)", "experiment": "Human VEGF ELISA in HT-29 xenograft tumors after PX-12", "format": "in vivo, SCID mice", "details": "PX-12 25 mg/kg ip", "protocol": "(§1) FIG. 12. Human VEGF levels (pg/μg protein) in HT-29 xenografts, and VEGF levels (pg/ml) in plasma after treatment with PX-12, 25 mg/kg ip (n=4 mice per time point).\n(§2) VEGF detection. Plasma was collected into EDTA tubes and tumors were removed and immediately snap frozen in liquid nitrogen. Tumors were then placed in buffer (10 mM Tris/HCl pH 7.4, and 100 mM NaCl) and homogenized using a PowerGen 125, Fisher Scientific, Pittsburgh, Pa. The suspension was then centrifuged twice at 8,000×g at 4° C. for 15 min. Protein was quantitated in supernatant using the Pierce BCA assay. VEGF levels were quantitated in plasma and tumor lysates using both human (hVEGF) and mouse VEGF […] ELISAs (R&D systems, Minneapolis, Minn.), according the manufactures' instructions.\n(§3) This example illustrates the effects of PX-12 on plasma and tumor VEGF levels, as measured by ELISA assays. In these xenografts, hVEGF is derived from the tumor and mVEGF from the host vasculature and stromal tissue, resulting in considerably higher hVEGF than mVEGF in the tumor. Although the endothelium is mouse derived, hVEGF inhibition in xenograft models has been reported to cause obliteration of the host tumor vasculature, implying that hVEGF is active at mouse VEGF receptors VEGFRI (Flt-i) and VEGFR2 (KDR). Therefore, levels of both mouse and human VEGF were measured in the tumor and plasma samples collected."}, "[5]": {"system": "mouse VEGF (mVEGF)", "experiment": "Mouse VEGF ELISA in tumor and plasma of HT-29 xenograft mice after PX-12", "format": "in vivo, SCID mice", "protocol": "as §1, §2, §3\nSome tumors are reported to secrete VEGF into the plasma which can then act on endothelial cells in a paracrine manner or on tumor cells in an autocrine loop if the tumor expresses the VEGF receptors VEGFRI or VEGFR2. Plasma hVEGF expression was too low to be detected in the plasma from the HT-29 xenografts."}, "[6]": {"target": "T1, Trx-1 (Homo sapiens, UniProt P10599)", "T1 sequence (P10599 1-105)": "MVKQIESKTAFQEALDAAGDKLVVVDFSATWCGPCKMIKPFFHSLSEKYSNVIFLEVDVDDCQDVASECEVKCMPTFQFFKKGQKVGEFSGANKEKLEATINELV", "details": "cited from earlier work"}, "[7]": {"system": "advanced malignancies", "details": "cited from earlier work"}, "[8]": {"system": "human tumor xenografts", "details": "cited from earlier work"}, "[9]": {"system": "hypoxic cells", "details": "cited from earlier work"}},
  "data": [
    {"compound": "Cc1[nH]c(/C=C2\\C(=O)Nc3ccccc32)c(C)c1CCC(=O)O", "note": "[SU6668]", "values": [
      {"measurement": "fractional plasma volume", "setting": "[1]", "value": "decrease"}
    ]},
    {"compound": "Cc1ccc2c(=O)c3cccc(CC(=O)O)c3oc2c1C", "note": "[DMXAA]", "values": [
      {"measurement": "tumor perfusion", "setting": "[2]", "value": "considerably decreased"}
    ]},
    {"compound": "Avastin: human anti-VEGF antibody Avastin (Bevacizumab, Genentech) [reference compound]", "values": [
      {"measurement": "vascular volume fraction VVf (%)", "setting": "[3]; 1 h post-Tx, HT-29, mean", "value": 4.4, "unit": "%"},
      {"measurement": "decrease in vascular volume fraction", "setting": "[3]; one hour after injection, 20 μl/30 g i.v.", "value": 31.5, "unit": "%"},
      {"measurement": "decrease in vascular permeability", "setting": "[3]; within an hour of injection, 20 μl/30 g i.v.", "value": 75, "unit": "%"}
    ]},
    {"compound": "CCC(C)SSc1ncc[nH]1", "note": "(stereo not shown) [PX-12, 1-methylpropyl 2-imidazolyl disulfide]", "values": [
      {"measurement": "mean reduction in permeability", "setting": "[3]; 12 hours after PX-12 treatment", "value": 59.2, "unit": "%"},
      {"measurement": "mean reduction in permeability", "setting": "[3]; 24 h post-treatment with PX-12", "value": 51.6, "unit": "%"},
      {"measurement": "change in permeability (return to control values)", "setting": "[3]; 48 hours after PX-12, not significant", "value": "+3.4±17.6%"},
      {"measurement": "vascular volume fraction of the tumor, control vs treated", "setting": "[3]; any time point (2-48 h) after PX-12", "value": "not significantly modified"},
      {"measurement": "mean reduction in tumor blood vessel permeability vs untreated tumors", "setting": "[3]; within 2 hours after PX-12 injection", "value": 63.4, "unit": "%"},
      {"measurement": "tumor VEGF levels", "setting": "[4]; 2 or 12 hours post-treatment", "value": "no significant change"},
      {"measurement": "hVEGF levels within the tumors", "setting": "[4]; after 24 hours of treatment", "value": "significant decrease"},
      {"measurement": "mouse plasma VEGF levels", "setting": "[5]; 2 hours post treatment, PX-12 25 mg/kg ip", "value": "showed a decrease"},
      {"measurement": "mouse VEGF in plasma", "setting": "[5]; after 24 h of PX-12 treatment, 25 mg/kg ip, P<0.02", "value": "significant decrease"},
      {"measurement": "mouse VEGF in tumor", "setting": "[5]; starting at 2 h, not statistically significant at any time point, PX-12 25 mg/kg ip", "value": "only a small decrease"},
      {"measurement": "concentrations at which active as a Trx-1 inhibitor", "setting": "[6]", "value": "submicromolar"},
      {"measurement": "circulating levels of VEGF in patients", "setting": "[7]; as soon as 4 hours post drug administration", "value": "decrease"},
      {"measurement": "antitumor activity in phase I study", "setting": "[7]; patients with advanced malignancies", "value": "revealed antitumor activity"},
      {"measurement": "in vivo antitumor activity", "setting": "[8]; human tumor xenografts in SCID mice", "value": "in vivo antitumor activity"},
      {"measurement": "expression of HIF 1α and VEGF and microvessel density", "setting": "[8]; xenograft tumors", "value": "significant decreases"}
    ]},
    {"compound": "COc1ccc(/C=C\\c2cc(OC)c(OC)c(OC)c2)cc1OP(=O)(O)O", "note": "[CA4P, combretastatin A4 phosphate]", "values": [
      {"measurement": "tumor perfusion", "setting": "[2]", "value": "only a small decrease"}
    ]},
    {"compound": "C[N+](C)([O-])CCCNc1c2ccccc2nc2cccc([N+](=O)[O-])c12", "note": "[aliphatic N-oxide of nitacrine]", "values": [
      {"measurement": "selectivity for hypoxic cells", "setting": "[9]", "value": "approximately 1500 fold"}
    ]}
  ]
}
